Data published in patent publication US5484778A, “Phthalocyanine photosensitizers for photodynamic therapy and methods for their use” (priority 1993, dated 1996).
“Also recorded” adds a separate entry of the source.

Tests used:
[1] = system: Chinese hamster V79-379 cells; assay: Clonogenic cell survival / photocytotoxicity in V79 cells (Table 1, FIG. 1, FIG. 2); assay type: cell-based; conditions: for CF10 (AlPcCl)/CF10 (Pc) / F10 (AlPcCl)/F10 (Pc): 1.0 μM, 18 h; for CF10 (AlPcCl)/CF10 (Pc): CF10 = intracellular concentration x fluence reducing survival to 10%; for F10 (AlPcCl)/F10 (Pc): F10 = fluence reducing survival to 10%
Protocol: FIG. 1 is a graph illustrating the photodynamic efficacy of the various compositions of the present invention in comparison to AlPcCl. The phthalocyanine composition compounds of the present invention were tested for their photodynamic efficiency against Chinese hamster fibroblast V79 cells by colony formation. Monolayer cultures were treated with the indicated phthalocyanine composition for 18 hours, irradiated with various fluences of red light, and immediately trypsinized and replated at appropriate aliquots in triplicate. Colonies of at least 50 cells were counted after 7-10 days. The plating efficiency of the untreated cells was approximately 90%.
In this regard, in FIG. 2 the data of FIG. 1 were replotted as a function of the product of the amount of cell-associated phthalocyanine and the light fluence.
(§1) Chinese hamster V79-379 lung fibroblasts were grown in monolayer culture in McCoy's 5A medium (Gibco Laboratories, Grand Island, N.Y.) augmented with 10% calf serum and buffered with 20 mM HEPES (pH 7.4).
(§2) The cells were treated with 1 μM AlPcCl (from Eastman Kodak, Rochester, N.Y.) or with phthalocyanine compositions I-VI (0.5-1.0 μM final concentration in the medium) for 18 hours by adding the appropriate volume of a 1.0 mM stock solution in dimethylformamide (DMF) to the culture medium. The growth medium was replaced with 4 ml Hank's balanced salt solution (HBSS), and the cells were irradiated. The light source was a 500 W tungsten-halogen lamp located approximately 29 inches below the surface of a glass exposure tray. The visible light administered to the cells was filtered to allow passage of only that portion of the visible spectrum above 600 nm (Lee Primary red filter No. 106, Vincent Lighting, Cleveland, Ohio). The fluence rate was approximately 0.074 kJ/m^2 /s at the level of the cell monolayer.
Cells were irradiated at a density of approximately 2×10^6 per 25 cm^2 flask. Immediately after irradiation, the cell monolayer was treated with trypsin, and appropriate aliquots were plated in triplicate to give 100 to 200 colonies in each 10-cm Petri dish. Cell survival was determined by the ability of the cells to form colonies containing at least 50 cells. The response of cells treated with 1 μM AlPcCl and light was compared in each experiment.
Photocytotoxicity of the phthalocyanines compounds I to VI was also assessed by clonogenic assay (Table 1, FIG. 1). In all experiments, 1 μM AlPcCl was included for comparison purposes. From the survival curves (FIG. 1), the fluence reducing the cell survival to 10% (F10) was obtained. The ratio of the F10 for AlPcCl and the F10 for the test compound is recorded in Table 1.
In order to take differences in cellular uptake into consideration in the assessment of the relative efficiency of these phthalocyanines as photosensitizers of V79 cells, the survival data were replotted against the product of intracellular phthalocyanine concentration and light fluence (FIG. 2). From these curves, the product of intracellular concentration and light fluence reducing survival to 10% (CF10) was obtained, and comparisons of the values for AlPcCl and the test compounds are recorded in Table 1.

[2] = system: Chinese hamster V79-379 cells; assay: Growth delay of V79 cultures after red light (Table 1); assay type: cell-based; conditions: for Growth Delay, efficiency relative to 1 μM AlPcCl: 18 h, 12 kJ/m^2 red light
Protocol: as §1, §2
At the time of light exposure, there were approximately 1.5×10^5 cells per 25 cm^2 flask. Following irradiation, the HBSS was replaced by 10 ml of fresh complete growth medium, and the cultures were returned to the 37° C. incubator. At various times before and after irradiation, duplicate cultures were trypsinized and counted. Controls included untreated cells and cells treated with light alone or drug alone. In addition, in each experiment, the drug to be tested was compared to a standard treatment, i.e. 1 μM AlPcCl for 18 hours followed by 12 kJ/m^2 light.
The inhibition of V79 culture growth was measured during a three day period following red light irradiation (12 kJ/m^2) of phthalocyanine-pretreated cells. With each of the active compounds, as well as with AlPcCl, there was an initial decrease in cell density, as dead cells became detached from the monolayer. Thereafter, the cell number per flask increased, as living cells grew and divided. The time for the cell density to recover to the level at the time of light exposure was considered the growth delay. […] The ratio of the growth delay for the test photosensitizer and the growth delay for AlPcCl measured in the same experiment is recorded in Table 1.

[3] = system: Chinese hamster V79-379 cells; assay: Uptake of phthalocyanines by V79 cells relative to AlPcCl (Table 1); assay type: cell-based
Protocol: as §1
Total uptake was determined by scraping the phthalocyanine-treated monolayer, collecting the cells on a glass-fiber filter, and extracting the phthalocyanine in ethanol, as previously described by Ramakrishnan, et al., 1989. (Ramakrishnan, N., M. E. Clay, M. F. Horng, A. R. Antunez, & H. H. Evans, "DNA Lesions and DNA Degradation in Mouse Lymphoma L5178Y Cells After Photodynamic Treatment Sensitized by Chloroaluminum Phthalocyanine",Photochem. Photobiol, in press, 1989). The amount of drug was determined by absorption at 674 nm and expressed relative to the number of cells, as measured in a Coulter cell counter on an aliquot of the cell population. Controls included cells not treated with drug, medium alone, and drug-containing medium without cells. The results of the total uptake of the various compositions of the present invention in comparison to AlPcCl are set forth below in Table 1.
as §2
All of the compounds have been examined for the extent of cellular uptake after exposure of V79 cells to 1 μM or less in complete medium, and the data of Table 1 are presented relative to the uptake from 1 μM AlPcCl, which was 0.723±0.172 nmole/10^7 cells (mean ±S. D., 25 determinations). […] In particular, when the concentration of Compound IV was 1 μM in the medium, the uptake into the cells was sufficiently high that some of the uptake and phototoxicity studies were repeated at 0.5 μM.

V79 cells [4] = system: V79 cells
Protocol: V79 cells Chinese hamster lung fibroblasts were cultured using the cell culture methods described above. […] When the filters were dry, the phthalocyanines were extracted into ethanol and the absorption determined at the peak wavelength, usually 668 nm.

L5178Y cells = assay: Induction of apoptosis (DNA fragmentation) in L5178Y-R cells (Table 6); assay type: cell-based, mouse; conditions: 0.4 μM
Protocol: (§3) Mouse lymphoma L5178y-R (hereinafter also referred to as "LY-R") cells were grown in suspension culture as described in Ramakrishnan N., Oleinick, N. L. Clay, M. E., Horng, M. F., Antunez, A. R., and Evans H. H., DNA lesions and DNA degradation in mouse lymphoma L5178Y cells after photodynamic treatment sensitized by chloroaluminum phthalocyanine. Photochem. Photobiol. 50, 373-378, 1989 and Agarwal, M. L., Clay, M. E., Harvey, E. J., Evans, H. H., Antunez, A. R., and Oleinick, N. L. Photodynamic therapy induces rapid cell death by apoptosis in L5178Y mouse lymphoma cells. Cancer Res., 51, 5993-5996, 1991.
(§4) The cells were used while in exponential growth. Stock solutions of either 0.5 or 1 mM of PcIV, PcXII, PcX, PcXVIII were prepared in dimethylformamide unless otherwise indicated and added to the 10 mL medium at a rate of 1 μL per mL. After allowing 18 hours for uptake of the phthalocyanine into the cells, the flasks containing the cultures were placed on a glass exposure tray above a 500-W tungsten-halogen lamp. The exposure tray was fitted with a 600-nm high-pass filter. Flasks were exposed to various fluences of red light (up to 30 kJ/m^2) at a fluence rate of approximately 74 W/m^2). After irradiation, the cells were collected by centrifugation.
(§5) For measurement of clonogenic cell survival, aliquots were plated in medium containing soft agar as described in Ramakrishnan N., Oleinick, N. L. Clay, M. E., Horng, M. F., Antunez, A. R., and Evans H. H., DNA lesions and DNA degradation in mouse lymphoma L5178Y cells after photodynamic treatment sensitized by chloroaluminum phthalocyanine. Photochem. Photobiol. 50, 373-378, 1989. The aliquots were plated in sufficient numbers to produce 50-200 colonies. The dishes were kept in an incubator at 37° C. in an atmosphere of 5% CO2 and 95% air for 10-14 days to allow viable cells to form colonies. Colonies were counted by eye. Controls treated with the phthalocyanine alone had plating efficiencies of ~90%. The plating efficiencies of the treated cells are normalized to the plating efficiencies of control cells in each experiment. For measurement of the induction of apoptosis, DNA was isolated from the treated and control cells 2 hours after photodynamic therapy, subjected to electrophoresis on 1.5% agarose, stained with ethidium bromide, and visualized by UV transillumination, as described in Agarwal et. al. The results are shown in Tables 4, 5 and 6 and in FIG. 3.
Cells were treated with various concentrations of the compounds listed in the table and various light fluences. DNA gels were prepared and examined for the characteristic "ladder" pattern of DNA fragments. For each Pc, the minimum total PDT dose tested (calculated as the product of the minimum phthalocyanine concentration and the minimum fluence) which produced visible DNA fragments is recorded. […] PcXVIII was also added at 0.5 and 1.0 μM.

V79 cells [5] = assay: Clonogenicity, killing of V79 cells using photodynamic therapy (Table 3); assay type: cell-based, Chinese hamster
Protocol: Using the cell culture methods described above, V79 cells Chinese hamster lung fibroblasts were treated with either 0.5 or 1.0 μM of the phthalocyanines listed in Table 3. About 18 hours thereafter, the cells were irradiated with increasing doses of 675 nm broad band red light from a 500 W tungsten-halogen lamp fitted with a 600 nm high pass filter, to determine the light dosage that would kill 90% of the phthalocyanine treated cells. Where 90% of the cells were not killed, the maximum percent of cells killed were determined, (expressed as % survival) and the related light dosage recorded.

L5178Y-R (LY-R) cells = assay: Clonogenic survival of PDT-treated L5178Y-R cells (Tables 4 and 5, FIG. 3); assay type: cell-based, mouse; conditions: 0.5 μM
Protocol: as §3, §4, §5
In Table 4 each phthalocyanine was present at 0.5 μM, and the normalized plating efficiencies are presented as mean and standard deviation at each fluence tested. […] This relative activity of these four phthalocyanines is the same as obtained from screening in V79 cells.
PcXII when present in the culture medium at 0.5 μM requires less light, that is the lowest fluence, to kill either 50% […] of the cells. PcIV is about 80% as active as PcXII, PcX is 44% as active as PcXII and PcXVIII is 22% as active as PcXII.

RIF-1 tumors = assay: PDT of RIF-1 implanted tumors (Table 7); assay type: in vivo, C3H/HeN mice; conditions: for effect on tumor volume / growth (in words): 1 mg/kg
Protocol: The relative effectiveness at reducing tumor volume of selected phthalocyanine compounds at a given dosage was compared in vivo. RIF-1, i.e., radiation-induced fibrosarcoma, tumors were implanted into the backs of C3H/HeN mice. One tumor was implanted per mouse. Each of the phthalocyanine compounds listed in Table 7 was sonicated and vortexed in corn oil to produce a suspension. When the tumors reached […] in diameter and 2-3 mm in thickness, each mouse received 1 mg/kg in 0.1 ml of the corn oil, of the phthalocyanine suspension. For comparison, select mice received a conventional photosensitizer; either 5 mg/kg of chloroaluminum phthalocyanine tetrasulfonate, herein also referred to as "AlPcTS" in phosphate buffered saline or 5 mg/kg of Photofrin®-II in 5% dextrose. Twenty-four hours after the photosensitizers were administered, the tumors were irradiated with visible radiation delivered by an argon-pumped dye laser. The mice that received a phthalocyanine photosensitizer received light having a wavelength of 675 nm and the mice that received the Photofrin® II photosensitizer received light having a wavelength of 630 nm. Each tumor received 135 J/cm^2 of radiation. Tumor size was measured every day using calipers. The initial tumor volume was 50±10 mm^3. Tumor volume was calculated according to the hemiellipsoid model by the formula: [formula] Where l is length Where W is width

Structure (SMILES) | photosensitizing efficiency / photocytotoxicity (in words) [1] | CF10 (AlPcCl)/CF10 (Pc) [1] | F10 (AlPcCl)/F10 (Pc) [1] | Growth Delay, efficiency relative to 1 μM AlPcCl [2] | inhibition of V79 culture growth (in words) ([2]; red light 12 kJ/m^2, three day period) | growth delay ([2]; 1 μM for 18 hours and 12 kJ/m^2 light) | uptake from 1 μM AlPcCl [3] [nmole/10^7 cells] | Uptake (from Table 2) (V79 cells [4]) [n Moles/10^6 cells/μM] | Uptake into V79 cells, composite value (V79 cells [4]) [n Moles/10^6 cells/μM] | uptake by V79 cells (in words) (V79 cells [4]) | Minimum Demonstrated Condition to induce apoptosis: C × F (L5178Y cells) [μm × kJ/m^2] | Minimum Demonstrated Condition to induce apoptosis: Fluence (L5178Y cells) [kJ/m^2] | LD 90 (V79 cells [5]; 0.5 μM, 18 h, light dose killing 90% of cells) [kJ/m^2] | photosensitizing activity, killing V79 cells (in words) (V79 cells [5]; discussion of Table 3) | LD 90 (L5178Y-R (LY-R) cells; fluence reducing survival to 10%) [kJ/m^2] | LD50 (L5178Y-R (LY-R) cells; fluence reducing survival to 50%) [kJ/m^2] | photosensitizer activity in LY-R cells (in words) (L5178Y-R (LY-R) cells; listed as PcXII) | Doubling Time of Initial Tumor Volume after PDT (RIF-1 tumors; 1 mg/kg in corn oil, 675 nm, 135 J/cm^2) [days] | effect on tumor volume / growth (in words) (RIF-1 tumors; listed as Pc XII) | effect on tumor volume / growth (in words) (RIF-1 tumors; listed as PcXII)
C[N+](C)(C)CCC[Si](C)(C)[O][Al-2]123[n]4c5c6ccccc6c4N=c4c6ccccc6c([n]41)=NC1=[N+]2C(=NC2=[N+]3C(=N5)c3ccccc32)c2ccccc21.I [Compound II, AlPcOSi(CH3)2 (CH2)3 N(CH3)3^+ I^-] | nearly as efficient photosensitizers as AlPcCl | 0.72 | 0.99 | 3.4 | substantial inhibition |  |  |  |  |  |  |  |  |  |  |  |  |  |  | 
[Cl][Al]1[n]2c3c4ccccc4c2N=C2N=C(N=c4c5ccccc5c([n]41)=NC1=NC(=N3)c3ccccc31)c1ccccc12 [AlPcCl, chloroaluminum phthalocyanine, reference compound] |  | 1.0 | 1.0 | 1.0 |  | approximately 24 hours | 0.723±0.172 |  |  |  |  |  |  |  |  |  |  |  |  | 
CN(C)CCC[Si](C)(C)O[Si]1(O[Si](C)(C)CCCN(C)C)n2c3c4ccccc4c2N=C2N=C(N=c4c5ccccc5c(n41)=NC1=NC(=N3)c3ccccc31)c1ccccc12 [Compound XII, SiPc[OSi(CH3)2 (CH2)3 N(CH3)2]2] |  |  |  |  |  |  |  | 1.6 | 1.6 | taken up particulary well | 1.2 | 3.0 | 3.3 | most active at killing V79 cells | 1.70 | 1.11 | active photosensitizers; also recorded: most active compound of the phthalocyanines shown in Table 5 | 20 | significantly impair the growth of the tumors | particularly effective in reducing tumor volume
